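1) Cells in 96-well plates. 2) Compound, 48 h, 5 concentrations. 3) Linear interpolation between surrounding doses. 4) Unreached endpoint = highest concentration. GI50 is the concentration that inhibits growth by half. The concentration for full growth arrest is given as TGI.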
Experiments:
Test in all cases: NCI-60 cell line screen, 48 h
A498 renal = test system: A498 renal
M14 melanoma = test system: M14 melanoma
SF-268 CNS = test system: SF-268 CNS
HL-60(TB) leukemia = test system: HL-60(TB) leukemia
UACC-257 melanoma = test system: UACC-257 melanoma
MALME-3M melanoma = test system: MALME-3M melanoma
BT-549 breast = test system: BT-549 breast
T-47D breast = test system: T-47D breast
HOP-62 NSCLC = test system: HOP-62 NSCLC
LOX IMVI melanoma = test system: LOX IMVI melanoma

SMILES | GI50 (A498 renal) [µM] | TGI (A498 renal) [µM] | GI50 (M14 melanoma) [nM] | TGI (M14 melanoma) [µM] | GI50 (SF-268 CNS) [µM] | TGI (SF-268 CNS) [µM] | GI50 (HL-60(TB) leukemia) [nM] | TGI (HL-60(TB) leukemia) [µM] | GI50 (UACC-257 melanoma) [nM] | TGI (UACC-257 melanoma) [µM] | GI50 (MALME-3M melanoma) [µM] | TGI (MALME-3M melanoma) [µM] | GI50 (BT-549 breast) [µM] | TGI (BT-549 breast) [µM] | GI50 (T-47D breast) [µM] | TGI (T-47D breast) [µM] | GI50 (HOP-62 NSCLC) [µM] | TGI (HOP-62 NSCLC) [µM] | GI50 (LOX IMVI melanoma) [µM] | TGI (LOX IMVI melanoma) [µM]
CC1(C)CCc2c(c(N=Nc3ccccc3F)c3ccccc3c2O)O1 | 25.9 | > 100 | > 100000 | > 100 | 76.3 | > 100 | > 100000 | > 100 | > 100000 | > 100 | 34.5 | > 100 | 33.5 | > 100 | 36.9 | > 100 | 45.3 | > 100 | 20.9 | 40.9
C#Cc1cccc(NC(=O)c2cccc(NC(=O)CCl)c2)c1 | 6.14 | > 82.5 | 32200 | > 82.5 | 23 | > 82.5 | 13200 | 39.7 | 54700 | > 82.5 | 15.7 | 41.5 | 17.8 | 70.4 | 30.2 | > 82.5 | 27.8 | > 82.5 | 8.87 | 21.7
O=S(=O)(O)n1ccnc1 (tested in a mixture with another compound) |  | > 100 |  | > 100 |  | > 100 |  | > 100 |  | > 100 |  | > 100 |  | > 100 |  | > 100 |  | > 100 |  | > 100
C#CCOC(=O)/C=C/C(=O)Oc1ccc2c(C)cc(=O)oc2c1 | > 100 | > 100 | > 100000 | > 100 | > 100 | > 100 | > 100000 | > 100 | > 100000 | > 100 | > 100 | > 100 | > 100 | > 100 | > 100 | > 100 | > 100 | > 100 | > 100 | > 100
Fc1ccc(-c2ncn(CCCN3CCOCC3)c2-c2ccncc2)cc1 | > 25 | > 25 | > 25000 | > 25 | > 25 | > 25 | > 25000 | > 25 | > 25000 | > 25 | > 25 | > 25 | > 25 | > 25 | > 25 | > 25 | > 25 | > 25 | > 25 | > 25
COc1ccc(-c2cc(-c3ccc(OC)cc3)nc(NCCCNc3ccnc4cc(Cl)ccc34)n2)cc1 | 5.32 | 18.3 | 1740 | 3.28 | 1.65 | 3.3 | 1910 | 3.86 | 1960 | 3.83 | 1.76 | 3.26 | 13.1 | 27.8 | 1.66 | 3.9 | 1.56 | 3.06 | 1.79 | 3.25
O=C(O)CN1C(=O)CN=C(c2ccccn2)c2cc(Cl)ccc21 |  | > 100 |  | > 100 |  | > 100 |  | 22.9 |  | > 100 |  | > 100 |  | > 100 |  | > 100 |  | > 100 |  | > 100
COc1ccc(C2CC(c3ccc(OC)cc3O)=NN2c2ccc(S(N)(=O)=O)cc2)cc1 (stereo not drawn) | 13.1 | 80.2 | 4540 | 25.9 | 34.1 | > 100 | 11900 | 47.9 | 15900 | > 100 | 20.2 | > 100 | 13.5 | 57.2 | 4.42 | 85.6 | 33.1 | > 100 | 14.1 | > 100
CCN(CC)CCn1c(=O)c2cc(OC)c(OC)cc2c2ccc3cc4c(cc3c21)OCO4 | 0.15 | 0.655 | 278 | 12.7 | 0.228 | 37.8 | 721 | 3.16 | 472 | 22.2 | 0.354 | 14.5 | 0.456 | 17.2 | 0.26 | 26.4 | 0.246 | 13.8 | 0.139 | 0.584
C=CCOc1ccc(N)c([N+](=O)[O-])c1 |  | > 100 |  | > 100 |  | > 100 |  | > 100 |  | > 100 |  | > 100 |  | > 100 |  | > 100 |  | > 100 |  | > 100
COc1ccccc1NC(=O)CC(=O)n1nc(C)c(N=Nc2ccccc2Cl)c1C |  | > 100 |  | > 100 |  | > 100 |  | > 100 |  | > 100 |  | > 100 |  | > 100 |  | > 100 |  | > 100 |  | > 100
COc1c(C)c(OC)c(C(=O)CC(C)C)c(OC)c1C |  | > 100 |  | > 100 |  | > 100 |  | 50.5 |  | > 100 |  | > 100 |  | > 100 |  | > 100 |  | > 100 |  | > 100
Cc1nc2ccccc2c(/C=C/c2ccccc2)c1C(=O)/C=C/c1ccc(C(F)(F)F)cc1 | 1.75 | 3.18 | 1600 | 3.94 |  |  | 1700 | 5.28 | 1960 | 4.25 | 1.71 | 3.18 | 1.25 | 2.89 | 1.18 | 3.88 |  |  | 1.09 | 2.34
CC[C@H]1CCC/C=C/[C@@H]2C[C@H](O)C[C@H]2[C@H](O)/C=C/C(=O)O1 | 0.0174 | 0.0596 | 37.6 | > 100 | 0.0403 | > 100 | 66.9 | 0.473 | 80.2 | > 100 | 0.0381 |  | 0.0549 | > 100 | 0.0636 | 0.263 | 0.0809 |  | 0.0251 | 0.0793
NNc1nc2ccccc2o1 |  | > 100 |  | > 100 |  | > 100 |  | > 100 |  | > 100 |  | > 100 |  | > 100 |  | > 100 |  |  |  | > 100
